# Reference: patent US9555115B2, “Pharmaceutical composition for oral administration with improved dissolution and/or absorption” (Taiho Pharmaceutical Co., Ltd., priority 2012, dated 2017)
# Test: Compatibility test: related substances by HPLC after storage of mixed powders
# Format: physicochemical
# From the text: 4-((1-methylpyrrol-2-yl)-carbonyl)-N-(4-(4-morpholin-1-yl-carbonylpiperidin-1-yl)-phenyl)-1-piperazinecarboxamide (compound 1) monohydrate and organic acids were respectively weighed in an amount of 0.5 g. Compound 1 monohydrate was mixed with each organic acid in a mortar to produce individual mixed powders. Subsequently, compound 1 monohydrate alone was weighed in an amount of 0.5 g to produce a compound 1 monohydrate powder according to the same method as in the production of the organic acid mixed powders.
# Each organic acid mixed powder and each compound 1 monohydrate powder were weighed in amounts of 0.04 g and 0.02 g, respectively, in sealed and open glass bottles. These bottles were allowed to stand at 60° C. and a relative humidity of 60% for two weeks, and then the production of a compound 1 monohydrate related substance was examined by HPLC to evaluate stability. In the evaluation, a high-speed liquid chromatograph (Shimadzu Corporation) was used.
# Detector: Ultraviolet spectrophotometer (measurement wavelength: 260 nm)
# Column: Phenylated silica gel for liquid chromatography (3.5 μm) (XBridge Phenyl, Japan Waters, Inc.) was placed in a stainless pipe with an inner diameter of 4.6 mm and a length of 10 cm.
# Column temperature: Constant temperature of around 40° C.
# Mobile phase A: Phosphate buffer solution (pH 7)
# Mobile phase B: Acetonitrile
# Transfer of mobile phase: The concentration gradient is regulated by changing the mixing ratio of mobile phases A and B as shown in Table 1.
compound,measurement,setting,value
"Cn1cccc1C(=O)N1CCN(C(=O)Nc2ccc(N3CCC(C(=O)N4CCOCC4)CC3)cc2)CC1.O [Compound 1 monohydrate, 4-((1-methylpyrrol-2-yl)-carbonyl)-N-(4-(4-morpholin-1-yl-carbonylpiperidin-1-yl)-phenyl)-1-piperazinecarboxamide]",Initial value Related Substances,"initial value, before storage",0.46 mass %
same,Open Related Substances,"open glass bottle, 60° C., relative humidity 60%, two weeks",0.47 mass %
same,Sealed Related Substances,"sealed glass bottle, 60° C., relative humidity 60%, two weeks",0.44 mass %
